Laboratory results from patent publication US20250257332A1, “TRUNCATED AND FUSION PROTEINS” (Monash University, priority 2021, published 2025).
“Also recorded” adds a separate entry of the source.

Assays:
C2C12 myoblasts = experiment: C2C12 myoblast proliferation by EdU incorporation; format: cell-based, mouse; conditions: for effect on NAMPT-induced increase in myoblast proliferation: co-administration with NAMPT
Protocol: FIG. 2. […] In vitro assay assessing the effects of exogenously introduced factors on C2C12 myoblast proliferation. Proliferation is identified by EdU incorporation. […] Mean+S.D. Two-way ANOVA with Tukey's multiple comparison test. […] Mean±SEM
The mouse muscle cell line C2C12 (Yaffe, D. & Saxel, O. Serial passaging and differentiation of myogenic cells isolated from dystrophic mouse muscle. Nature 270, 725 (1977) were cultured in growth media (Dulbecco's Modified Eagle Medium (4.5 g/l D-Glucose, No L Glutamine, No Sodium Pyruvate (Gibco))+20% Fetal Bovine Solution-One Shot (Gibco)+1% Glut Max 100×(Gibco)). Cells were maintained at 37° C., 5% CO2. Cells at 70% confluence, passage 8 were extracted from T75 flasks with 0.025% Tryspin EDTA (Gibco), neutralised in growth media, spun at 180×g for 5 min to pellet cells. The cells were then resuspended in 10 ml of fresh growth media. 500 μl of cells were plated on a 8-well on cover glass II (Sarstedt) chamber slide at a density of 1×10^3 cells/ml. Cells were left 4 h at 37° C. to re-attach. For drug treatments, the media were supplemented with appropriate doses and cultured for 6 h.

[1] = tested on: C2C12 murine myoblast cells; experiment: C2C12 cell proliferation, CyQuant Proliferation Assay kit; format: cell-based, mouse; conditions: 20 nM, 48 hours, compared with full-length NAMPT
Protocol: FIG. 7. Human NAMPT variants stimulate muscle progenitor proliferation. C2C12 mouse myoblasts were treated with 20 nM full length NAMPT (NAMPT) or NAMPT variants for (NAMPTxxx-xxx, where xxx are amino acid numbers) 48 hours. Quantification of cell proliferation was performed using CyQuant Proliferation Assay kit. […] Box and whiskers denote median with minimum and maximum values. n=4-5 independent experiments per protein. Statistical significance is indicated as exact p-value. […] Significance between conditions were analysed by one-way ANOVA with Tukey post-hoc test.
Human NAMPTcif (hNAMPTcif) and truncated variants of hNAMPTcif were designed by progressively removing N-terminal regions containing positively charged amino acids. Four truncations were produced and numbered T1 to T4. […] Quantification of proliferation was performed using commercially-available CyQuant Proliferation Assay kit (Thermo Fisher Scientific) according to manufacturer's instructions and read using a Synergy H1 plate reader (BioTek). […]
The heparin-binding sequence of placenta growth factor 2 (PIGF2) was fused to the N-terminus of NAMPTcif and produced using a bacterial expression system. […] Quantification of proliferation was performed using commercially-available CyQuant Proliferation Assay kit (Thermo Fisher Scientific) according to manufacturer's instructions and read using a Synergy H1 plate reader (BioTek). […]

TLR4 = target: T1, TLR4 (Homo sapiens, UniProt O00206); experiment: TLR4 signalling assay in HEK-Blue TLR4 reporter cells; format: cell-based; conditions: 19 nM; 24 hours; plus 5 ug/ml polymyxin B
T1 construct: host or cells: HEK-Blue TLR4 reporter cell line
Protocol: TLR4 receptor activation was assayed using the HEK-Blue TLR4 reporter cell line (InvivoGen). In this cell line, TLR4 and downstream NFκB signalling induces expression and secretion of alkaline phosphatase that can be quantified via colorimetric assay. HEK-Blue cells were treated for 24 hours with 19 nM of NAMPTcif or PIGF-NAMPTcif plus 5 ug/ml polymyxin B to ensure no TLR4 activation by any trace amounts of endotoxin. TLR4 activity was reported as the equivalent amount of activation by bacterial lipopolysaccharides (LPS), thus a standard curve was generated by serial dilutions of LPS from 0.01 to 20 ng/ml. Detection of alkaline phosphatase activity was performed using a QUANTI-Blue kit (InvivoGen) according to manufacturer's instructions and plates were read using a Synergy H1 plate reader (BioTek). Data were presented as equivalent LPS concentration in ng/ml. A one-way ANOVA with Dunnett's multiple comparisons test was performed to determine statistical significance.

[2] = tested on: volumetric muscle loss injury of the rectus femoris muscle
Protocol: Injury: male C57BL/6J mice aged between 10-12 weeks were anesthetised and shaved on the hind left leg. A unilateral incision measuring approximately 1 cm was made exposing the underlying fascia. The left hind limb was extended and exteriorised via the incision site by retracting the surrounding tissue. A 3×4 mm full thickness segment of the rectus femoris muscle was removed. Directly after, the injury site was filled with fibrin hydrogel with or without 200 ng or 500 ng of hrNAMPT (1) (hydrogel components; 40 μl, 8 mg/ml human fibrinogen (FIB3, Enzyme Research Laboratories), 4 U/ml bovine thrombin (T4648, Sigma), 5 mM CaCI2, 17 μg/ml of aprotinin (ab146286, Abcam)) which polymerized in the defect. Then, the soft tissue was closed with stitches.
Histology: 10 days after treatment, animals were sacrificed and the wounds were harvested for histological analysis. The defect site and associated proximal and distal segment of the quadriceps muscle (including the rectus femoris, vastus medialis and vastus lateralis) were excised and embedded. Histological analysis was performed on serial paraffin sections (4 μm sections collected passing the central portion of the wound). Multiple sections were stained with Masson's Trichrome (to detect collagen deposition) and the extent of fibrosis (represented by a blue stain) was measured by histomorphometric analysis using ImageJ software (version 1.51 h, National Institutes of Health, USA). To maintain uniformity between samples, the length of the vastus medialis taken at multiple depths ranging from 1.0 mm-3.0 mm serves as a reference between tissue sections to determine the depth of sectioning. For fibrotic quantification, average muscle fibrosis area at each depth was scored and normalised with the area of the rectus femoris. Total area of muscle is determined by calculating the average area of rectus femoris at each depth.
Immune cell profiling and PAX7+ cell quantification with flow cytometry: 4, 6 or 8 days after treatment with either 0.5 μg of hrNAMPT (1) delivered by fibrin hydrogel or control fibrin hydrogel only, mice were euthanised via CO2 asphyxiation. The defect site and associated proximal and distal segment of the quadricep muscles were isolated and placed into 890 μl of complete RPMI (with 10% FBS and 2 mM Glutamax, Life Technologies). The tissue was minced with surgical scissors and 100 μl of 10 mg/ml Collagenase II (Sigma-Aldrich) and 10 μl of 10 mg/ml DNAse I (Biolabs), while 100 μl of dispase II (10 mg/ml) was added into the digestion for PAX7 acquisition. The mixture was vortexed and incubated at 37° C. for 45 min. The collagenase was then inactivated with 500 μl ice-cold PBS, 5% FBS, 5 mM EDTA. The mixture was strained subsequently through 70 μm and 40 μm filters. The cell suspension was further diluted with 1 ml complete RPMI and centrifuged for 10 min at 300×g. The supernatant was discarded and the pellet was resuspended in 250 μl complete RPMI and aliquoted into wells of a 96-well U bottom plate for antibody staining. The cell solutions were centrifuged, supernatant discarded, and washed with PBS. The cell viability stain used was 100 μl of Zombie Aqua (Biolegend) Live-Dead dye diluted in PBS (1:400 dilution) and incubated for 30 min at 4° C. The cells were then blocked with FcX (anti-CD16/32 antibodies, Biolegend, 1 μg/ml) flow cytometry buffer (PBS, 5% FBS). The cells were kept for 20 min at 4° C., washed with flow cytometry buffer and centrifuged. […] For internal Foxp3 staining in the T cell panel, cells were fixed with 100 μl fixation/permeabilisation solution (42080, Biolegend) for 35 min. Then cells were washed and resuspended in 100 μl of flow cytometry buffer with 0.5% Saponin and 5 μg/ml anti-Foxp3 (clone 3G3, #35-5773-U100) for 45 min. Cells were then resuspended in flow cytometry buffer (100 μl) and acquired on the Fortessa x20 (Beckman Coulter). […] Cells were stained for 45 min on ice and washed as described above.

[3] = tested on: Human primary endothelial cells derived from umbilical vein; experiment: Human primary endothelial cell proliferation, CyQuant; format: cell-based; conditions: 20 nM; 48 hours
Protocol: FIG. 9. Human NAMPT variants stimulate human endothelial cell proliferation. Human primary endothelial cells derived from umbilical vein were treated with 20 nM full length NAMPT (NAMPT) or NAMPT variants (NAMPTxxx-xxx, where xxx are amino acid numbers) for 48 hours. Quantification of cell proliferation was performed using CyQuant Proliferation Assay kit. […] Treatment with 10% FBS was used as a positive control. Box and whiskers denote median with minimum and maximum values. n=6 independent experiments per protein. Statistical significance is indicated as p-value and determined by one-sample t-test.
Similarly, the inventors next investigated the activity of full length NAMPT, NAMPT402-491 and NAMPT422-491 on human endothelial cell proliferation. Human endothelial cells were derived from umbilical vein and treated with 20 nM full length NAMPT (NAMPT) or NAMPT variants for 48 hours.

[4] = fibrin hydrogel delivery, 10 days post treatment
[5] = single dose 0.5 μg in fibrin hydrogel at the point of injury, 10 days post treatment, vs fibrin only

T1 sequence (O00206 24-839): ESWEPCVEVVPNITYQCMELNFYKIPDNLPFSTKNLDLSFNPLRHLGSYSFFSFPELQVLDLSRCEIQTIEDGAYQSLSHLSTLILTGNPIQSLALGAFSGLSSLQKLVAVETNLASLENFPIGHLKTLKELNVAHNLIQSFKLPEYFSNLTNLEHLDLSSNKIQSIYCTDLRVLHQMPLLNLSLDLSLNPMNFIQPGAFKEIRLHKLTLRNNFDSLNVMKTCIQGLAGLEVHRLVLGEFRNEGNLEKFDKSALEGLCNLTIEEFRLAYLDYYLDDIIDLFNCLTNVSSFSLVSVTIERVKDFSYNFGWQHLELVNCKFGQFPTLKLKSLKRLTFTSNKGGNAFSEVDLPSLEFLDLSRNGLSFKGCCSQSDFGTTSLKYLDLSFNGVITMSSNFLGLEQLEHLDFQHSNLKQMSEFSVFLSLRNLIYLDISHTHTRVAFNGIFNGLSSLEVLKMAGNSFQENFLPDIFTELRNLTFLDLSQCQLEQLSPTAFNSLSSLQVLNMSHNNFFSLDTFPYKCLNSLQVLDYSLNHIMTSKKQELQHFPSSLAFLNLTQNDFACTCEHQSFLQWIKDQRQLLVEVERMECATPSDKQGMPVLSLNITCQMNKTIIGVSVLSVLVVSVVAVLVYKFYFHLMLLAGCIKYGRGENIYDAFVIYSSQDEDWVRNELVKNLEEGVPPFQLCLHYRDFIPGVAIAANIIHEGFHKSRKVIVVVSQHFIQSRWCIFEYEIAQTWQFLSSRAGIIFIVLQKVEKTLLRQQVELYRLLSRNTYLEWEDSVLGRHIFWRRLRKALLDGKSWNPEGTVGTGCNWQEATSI
T1 sequence (Q9Y6Y9 17-160 partner limits assumed): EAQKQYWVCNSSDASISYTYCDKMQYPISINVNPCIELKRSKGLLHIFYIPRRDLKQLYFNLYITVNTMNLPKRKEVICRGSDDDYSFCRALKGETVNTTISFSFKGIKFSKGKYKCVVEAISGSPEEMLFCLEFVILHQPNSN

Compound: N#CN=C(NCCCCCCOc1ccc(Cl)cc1)Nc1ccncc1 [GMX1778]
- effect on NAMPT-induced increase in myoblast proliferation (C2C12 myoblasts; EdU incorporation): does not impact its effect on myoblast proliferation; also recorded: did not affect the increased myoblast proliferation
- effect on basal level of C2C12 proliferation (C2C12 myoblasts; drug alone, EdU incorporation): no negative effect on the basal level of C2C12 proliferation

Compound: O=C(NCC(=O)N1CC[C@H](N[C@H]2CC[C@@](O)(c3ccc(-c4ncccn4)cn3)CC2)C1)c1cccc(C(F)(F)F)c1 [PF-4136309]
- effect on NAMPT-induced increase in myoblast proliferation (C2C12 myoblasts; EdU incorporation): does not hinder NAMPT's stimulatory effect on myoblast proliferation

Compound: CCCCOCCOc1ccc(-c2ccc3c(c2)/C=C(/C(=O)Nc2ccc([S@@+]([O-])Cc4cncn4CCC)cc2)CCCN3CC(C)C)cc1 [cenicriviroc]
- effect on NAMPT-induced increase in myoblast proliferation (C2C12 myoblasts; EdU incorporation): abolishes NAMPT's pro-proliferative response; also recorded: proliferative response was blocked

Compound: CCL2/MCP-1: CCR2 ligand
- myoblast proliferation (EdU incorporation), factor alone (C2C12 myoblasts; exogenously added factor vs control, listed as mrCCL2): failed to increase proliferative rates beyond that of the control

Compound: NAMPT422-471: Truncated hNAMPTcif, residues 422-471 of full length NAMPT, SEQ ID NO: 33 (His-tagged: SEQ ID NO: 34) (NKRSKKGRLSLHRTPAGNFVTLEEGKGDLEEYGQDLLHTVFKNGKVTKS)
- cell proliferation, percentage increase vs PBS-treated control [1]: lower cellular proliferation of muscle progenitor cells compared to full-length NAMPT and the other NAMPT variants

Compound: NAMPT436-491: Truncated hNAMPTcif, residues 436-491 of full length NAMPT, SEQ ID NO: 10 (His-tagged: SEQ ID NO: 11) (PAGNFVTLEEGKGDLEEYGQDLLHTVFKNGKVTKSYSFDEIRKNAQLNIELEAAHH)
- cell proliferation, percentage increase vs PBS-treated control [1]: lower cellular proliferation of muscle progenitor cells compared to full-length NAMPT and the other NAMPT variants

Compound: Nicotinamide phosphoribosyltransferase [NAMPT]
- TLR4 activation (equivalent LPS concentration) (TLR4): activates TLR4
- number of centrally nucleated de novo muscle fibres ([2]; 0.5 μg in fibrin, 6 days post treatment, vs fibrin only): significant increase
- restoration of muscle architecture ([2]; delivered into the muscle defect via fibrin hydrogel, vs fibrin only control hydrogel): fully restore muscle architecture
- fibrotic tissue (Masson's trichrome) [2, 4]: significant reduction in fibrotic tissue
- regenerated muscle area (Masson's trichrome) [2, 4]: significantly increased the regenerated muscle area
- decrease in average fibrotic area [2, 5]: 34.76±9.32%
- increase in average muscle area [2, 5]: 3.276±0.4926 mm^2
- endothelial cell proliferation, percentage increase vs PBS-treated control [3]: still stimulated endothelial cell proliferation above negative control

Compound: maraviroc
- effect on NAMPT-induced increase in myoblast proliferation (C2C12 myoblasts; EdU incorporation): abolishes NAMPT's pro-proliferative response; also recorded: proliferative response was blocked
